Assay results: patent US20080089851A1, “Brown Algae Cell Lyophilisate, Method For The Obtention Thereof” (BIOTECHMARINE, priority 2005, published 2008)

What was measured:
[1] = test system: microsomes of human keratinocytes; assay: Transport of proteins (albumin), direct treatment of isolated microsomes; type: biochemical; conditions: for Capture of albumin-FITC: ND 6 mg/ml
Protocol: 7.1—Assessment of the Rate of Transport of Macromolecules (Glucids, Lipids and Proteins) in a System of Isolated Microsomes. Direct Effect of the BB Product on Isolated Microsomes: The microsomes of human keratinocytes form a membrane fraction obtained by high-speed differential centrifugation of a cell homogenate. This preparation of microsomes requires the addition of exogenous cofactors such as NADPH. 7.1.3—Transport of Proteins (Albumin) The assay was performed in triplicate after the direct treatment of microsomes. • Charge 1: negative control not receiving any product • Charge 2: positive control (Nocodazole, 6 mg/ml) • Charge 3-5: treated receiving the investigated product (3 concentrations) • Charge 6-8: treated with Nocodazole 6 mg/ml, and with the investigated product (3 concentrations) The obtained microsomes from human keratinocytes in culture were rinsed 3 times with a buffer, afterwards pre-incubated in 1 ml of the same buffer for 30 minutes at 3° C. This solution was subsequently discarded and the microsomes were placed into the HBSS buffer containing albumin-FITC with stirring in a water bath at 37° C. The capture of albumin is stopped by addition of a Ringer's solution containing 122.5 mM NaCl; 5.4 mM KCl; 1.2 mM CaCl2; 0.8 mM MgCl2; 0.8 Na2HPO4; 0.2 NaHPO4; 5.5 mM glucose; 10 mM HEPES, pH 7,4. Afterwards, the microsomes were treated with Triton X-100 at (0.1% v/v in 3-(N-morpholino) propanesulfonic acid 20 mM, pH 7.4). The fluorescence was quantified with a spectrophotometer (excitation 480 nm: emission 520 nm). The kinetics of incubation was performed between 30 and 120 seconds. The treatment of microsomes with the BB product alone or in the presence of Nocodazole (ND) were carried out at the same time as the introduction of albumin-FITC into the incubation medium. The assay of proteins was performed following the BRADFORD method. The increase in absorbance at 595 nm is proportional to the concentration of proteins measured with a spectrophotometer.

[2] = test system: normal human keratinocytes; assay: Transport of proteins (albumin), normal human keratinocytes; type: cell-based; conditions: for Capture of albumin-FITC: S.D. 6 mg/ml
Protocol: The obtained microsomes from human keratinocytes in culture were rinsed 3 times with a buffer, afterwards pre-incubated in 1 ml of the same buffer for 30 minutes at 3° C. This solution was subsequently discarded and the microsomes were placed into the HBSS buffer containing albumin-FITC with stirring in a water bath at 37° C. The capture of albumin is stopped by addition of a Ringer's solution containing 122.5 mM NaCl; 5.4 mM KCl; 1.2 mM CaCl2; 0.8 mM MgCl2; 0.8 Na2HPO4; 0.2 NaHPO4; 5.5 mM glucose; 10 mM HEPES, pH 7,4. Afterwards, the microsomes were treated with Triton X-100 at (0.1% v/v in 3-(N-morpholino) propanesulfonic acid 20 mM, pH 7.4). The fluorescence was quantified with a spectrophotometer (excitation 480 nm: emission 520 nm). The kinetics of incubation was performed between 30 and 120 seconds. 7.2—Assessment of the Rate of Transport of Macromolecules at the Level of Normal Human Keratinocytes The applied method was that of explants allowing to obtain, from a biopsy of human skin, keratinocytes in primary cultures. The assays were carried out on keratinocytes between the 2nd and the 4th passage in order to ensure a reproductibility between the different experiences. The keratinocytes were divided into multiwell plates (6 wells) at a rate of 10^5 cells per well in 1 ml of culture medium […] supplemented with insulin and hydrocortisone. The cells were incubated in the presence and absence of the investigated product. 7.2.3—Transport of Proteins (Albumin) The assay was carried out in triplicate on normal human keratinocytes in culture. • Charge 1: negative control not receiving any product. • Charge 2: positive control (Nocodazole, 6 mg/ml) • Charge 3-5: treated receiving the investigated product (3 concentrations) • Charge 6-8: treated with Nocodazole, 6 mg/ml, and with the investigated product (3 concentrations) The treatment of keratinocytes with the BB product in the presence and absence of Nocodazole, 6 mg/ml, was carried out for 120 minutes at 37° C. The membrane microsomes were separated by differential centrifugation. The same protocol of capture of albumin-FITC was used for the determination of the rate of transport of albumin (cf. 3.1.4.2)

[3] = test system: human keratinocytes in senescence; assay: Transport of proteins (albumin), human keratinocytes in senescence; type: cell-based; conditions: for Capture of albumin-FITC: ND 6 mg/ml
Protocol: The obtained microsomes from human keratinocytes in culture were rinsed 3 times with a buffer, afterwards pre-incubated in 1 ml of the same buffer for 30 minutes at 3° C. This solution was subsequently discarded and the microsomes were placed into the HBSS buffer containing albumin-FITC with stirring in a water bath at 37° C. The capture of albumin is stopped by addition of a Ringer's solution containing 122.5 mM NaCl; 5.4 mM KCl; 1.2 mM CaCl2; 0.8 mM MgCl2; 0.8 Na2HPO4; 0.2 NaHPO4; 5.5 mM glucose; 10 mM HEPES, pH 7,4. Afterwards, the microsomes were treated with Triton X-100 at (0.1% v/v in 3-(N-morpholino) propanesulfonic acid 20 mM, pH 7.4). The fluorescence was quantified with a spectrophotometer (excitation 480 nm: emission 520 nm). The kinetics of incubation was performed between 30 and 120 seconds.
7.3—Assessment of the Rate of Transport of Macromolecules at the Level of Human Keratinocytes in Senescence
The senescence is a phenomenon of cellular aging, where the cells are arrested in the phase G1 of the cell cycle and never enter the synthesis phase leading to the cell division. Senescent cells are characterized by their slow metabolism at synthesis and transport of macromolecules levels.
The cells in culture deprived of serum stop their growth, but continue to progress through the cell cycle until they reach the phase G1.
The applied method allowed to obtain, from a human skin biopsy, primary cultures of keratinocytes. The assays were performed on keratinocytes, between the 8th and the 10th passage, in order to ensure the presence of senescent cells at control cells level.
The keratinocytes were seeded in multiwell plates (6 wells) at a rate of 10^5 cells per well in 3 ml of culture medium […] supplemented with EGF, hydrocortisone, insulin and gentamicyn. Afterwards they are maintained for 5 days in incubator under CO2.
7.3.3—Transport of Proteins (Albumin)
The assay was carried out in triplicate on human keratinocytes in senescence. • Charge 1: negative control not receiving any product. • Charge 2: positive control (Nocodazole, 6 mg/ml) • Charge 3-5: treated receiving the investigated product (3 concentrations) • Charge 6-8: treated with Nocodazole, 6 mg/ml, and the investigated product (3 concentrations)
The treatment of keratinocytes with the BB product in the presence and absence of Nocodazole, 6 mg/ml, was carried out for 120 minutes at 37° C. The membrane microsomes were separated by differential centrifugation.
The same protocol of capture of albumin-FITC was applied to determine the rate of transport of albumin (cf. 6.1.3)

Q: With `COC(=O)Nc1nc2ccc(C(=O)c3cccs3)cc2[nH]1` [ND, Nocodazole] as the compound, how does the “Capture of albumin-FITC” value ([1]; 30 s) read?
A: 0.11 μg/mg proteins

Q: And the “Capture of albumin-FITC” value ([1]; 60 s)?
A: 0.29 μg/mg proteins

Q: And the “Capture of albumin-FITC” value ([1]; 90 s)?
A: 0.34 μg/mg proteins

Q: And the “Capture of albumin-FITC” value ([1]; 120 s)?
A: 0.43 μg/mg proteins

Q: And the “rate of transport of proteins (in words)” value ([1]; Nocodazole 6 mg/ml alone)?
A: strongly inhibits

Q: What about the “rate of transport of proteins (in words)” value ([2]; Nocodazole 6 mg/ml alone) of the same compound?
A: inhibits

Q: What about the “Capture of albumin-FITC” value ([2]; 30 s) of the same compound?
A: 0.09 μg/mg proteins

Q: What about the “Capture of albumin-FITC” value ([2]; 60 s) of the same compound?
A: 0.22 μg/mg proteins

Q: And the “Capture of albumin-FITC” value ([2]; 90 s)?
A: 0.26 μg/mg proteins

Q: And the “Capture of albumin-FITC” value ([2]; 120 s)?
A: 0.37 μg/mg proteins

Q: What about the “Capture of albumin-FITC” value ([3]; 30 s) of the same compound?
A: 0.06 μg/mg of proteins

Q: What about the “Capture of albumin-FITC” value ([3]; 60 s) of the same compound?
A: 0.11 μg/mg of proteins

Q: And the “Capture of albumin-FITC” value ([3]; 90 s)?
A: 0.19 μg/mg of proteins

Q: What about the “Capture of albumin-FITC” value ([3]; 120 s) of the same compound?
A: 0.3 μg/mg of proteins

Q: What about the “rate of transport of proteins (in words)” value ([3]; Nocodazole 6 mg/ml alone) of the same compound?
A: inhibits
